Tests used:
HIV-1 protease [1] = target: T1, HIV-1 protease (Human immunodeficiency virus type 1 group M subtype B, UniProt P04585); assay: biochemical; conditions: read-out: HIV-1 FITC KI
In short: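 Enzyme (40 nM stock) and substrate (200 μM stock) incubated with inhibitor, 24–48 two-fold serial concentrations, for 90 min at room temperature, then quenched with avidin beads. Nonlinear least-squares analysis gives Ki; a known-Ki inhibitor validates each run.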

HIV-1 protease [2] = target: T1, HIV-1 protease; assay: biochemical; conditions: for inhibition at 0.123 µM: read-out: HIV-1 Protease % Inhib, dose 0.123 uM; for inhibition at 0.37 µM: read-out: HIV-1 Protease % Inhib, dose 0.370 uM; for inhibition at 1.1 µM: read-out: HIV-1 Protease % Inhib, dose 1.100 uM; for inhibition at 3.3 µM: read-out: HIV-1 Protease % Inhib, dose 3.300 uM; for inhibition at 10 µM: read-out: HIV-1 Protease % Inhib, dose 10.000 uM; for inhibition at 30 µM: read-out: HIV-1 Protease % Inhib, dose 30.000 uM
In short: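 Percent inhibition derived from fluorescent cleavage product separated by filtration after streptavidin-bead capture of intact biotin/FITC substrate. Reaction: enzyme (10 μl, 0.1 μM stock) with substrate (20 μl, 0.2 μM stock) and compound, 1 h at room temperature in dark, pH 5.5 acetate buffer with 1.0 M NaCl and 0.05% NP-40.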

Structure (SMILES)	Ki (HIV-1 protease [1])	inhibition at 0.123 µM (HIV-1 protease [2])	inhibition at 0.37 µM (HIV-1 protease [2])	inhibition at 1.1 µM (HIV-1 protease [2])	inhibition at 3.3 µM (HIV-1 protease [2])	inhibition at 10 µM (HIV-1 protease [2])	inhibition at 30 µM (HIV-1 protease [2])	HIV-1 Protease % Inhib (HIV-1 protease [2]; dose 0.123 uM)	HIV-1 Protease % Inhib (HIV-1 protease [2]; dose 0.370 uM)	HIV-1 Protease % Inhib (HIV-1 protease [2]; dose 1.100 uM)	HIV-1 Protease % Inhib (HIV-1 protease [2]; dose 3.300 uM)	HIV-1 Protease % Inhib (HIV-1 protease [2]; dose 10.000 uM)	HIV-1 Protease % Inhib (HIV-1 protease [2]; dose 30.000 uM)
O=c1oc2c(c(O)c1C(c1cccc(NS(=O)(=O)c3cccc(NO)c3)c1)C1CC1)CCCCCC2 (centres unmarked) [Example 353 (Second Title Compound), N-[3-[Cyclopropyl(5,6,7,8,9, 10-hexahydro-4-hydroxy-2-oxo-2H-cycloocta[b]pyran-3-yl)methyl]phenyl]-3-(hydroxyamino)-benzenesulfonamide]	2.4 nM	61.4%	92.7%	103%	110%	113%	107%	–	–	–	–	–	–
COC(=O)c1cccc(S(=O)(=O)Nc2cccc(C(c3c(O)c4c(oc3=O)CCCCCC4)C3CC3)c2)c1 (centres unmarked) [Example 354, 3-[[[3-[Cyclopropyl(5,6,7,8,9,10-hexahydro-4-hydroxy-2-oxo-2H-cycloocta[b]pyran-3-yl)methyl]phenyl]amino]sulfonyl]-benzoic acid, methyl ester]	1.45 nM	71.4%	86.4%	96.1%	100%	103%	108%	–	–	–	–	–	–
O=c1oc2c(c(O)c1C(c1cccc(NS(=O)(=O)c3cccc(NCCO)c3)c1)C1CC1)CCCCCC2 (centres unmarked) [Example 355 (First Title Compound), N-[3-[Cyclopropyl(5,6,7,8,9,10-hexahydro4-hydroxy-2-oxo-2H-cycloocta[b]pyran-3-yl)methyl]phenyl]-3-[(2-ethanol)amino]-benzenesulfonamide]	2.14 nM	117%	117%	115%	103%	72.6%	61.9%	–	–	–	–	–	–
O=c1oc2c(c(O)c1C(c1cccc(NS(=O)(=O)c3cccc(N(CCO)CCO)c3)c1)C1CC1)CCCCCC2 (centres unmarked) [Example 355 (Second Title Compound), N-[3-[Cyclopropyl(5,6,7,8,9,10-hexahydro-4-hydroxy-2-oxo-2H-cycloocta[b]pyran-3-yl)methyl]phenyl]-3-[(bis-(2-ethanol))amino]-benzenesulfonamide]	1.06 nM	112%	111%	107%	110%	110%	108%	–	–	–	–	–	–
O=c1oc2c(c(O)c1C(c1cccc(NS(=O)(=O)c3cccc(CO)c3)c1)C1CC1)CCCCCC2 (centres unmarked) [Example 356, N-[3-[Cyclopropyl(5,6,7,8,9,10-hexahydro-4-hydroxy-2-oxo-2H-cycloocta[b]pyran-3-yl)methyl]phenyl]-3-[methanol]-benzenesulfonamide]	1.32 nM	97.7%	97.2%	97.9%	101%	102%	100%	–	–	–	–	–	–
O=c1oc2c(c(O)c1C(c1cccc(NS(=O)(=O)c3cccc(N4CCCS4(=O)=O)c3)c1)C1CC1)CCCCCC2 (centres unmarked) [Example 357, N-[3-[Cyclopropyl[3-(2-isothiazolidinyl)phenyl]methyl-(5,6,7,8,9,10-hexahydro4-hydroxy-S,S'-dioxide)methyl]phenyl]-3-[(phenylsulfonyl)amino]4-2H-cycloocta[b]pyran2-one]	0.62 nM	104%	97.2%	101%	98.3%	96.8%	89.6%	–	–	–	–	–	–
CS(=O)(=O)Nc1cccc(C(c2c(O)c3c(oc2=O)CCCCC3)C2CC2)c1 (centres unmarked) [Example 364, N-[3-[Cyclopropyl(2,5,6,7,8,9-hexahydro-4-hydroxy-2-oxocyclohepta[b]pyran-3-yl)methyl]phenyl]-methanesulfonamide]	118 nM	–	17.2%	53.5%	78.7%	100%	90.2%	–	–	–	–	–	–
NC(=O)c1ccc(S(=O)(=O)Nc2cccc(C(c3c(O)c4c(oc3=O)CCCCCC4)C3CC3)c2)cc1 (centres unmarked) [Example 365A, 4-[[[3-[Cyclopropyl(5,6,7,8,9,10-hexahydro-4-hydroxy-2-oxo-2H-cycloocta[b]pyran-3-yl)methyl]phenyl]amino]sulfonyl]-benzamide]	1.86 nM	83.8%	106%	115%	116%	117%	116%	–	–	–	–	–	–
I.O=c1oc2c(c(O)c1C(c1cccc(NS(=O)(=O)CCCN3CCOCC3)c1)C1CC1)CCCCCC2 (centres unmarked) [Example 365B (Third Title Compound), N-[3-[Cyclopropyl(5,6,7,8,9,10-hexahydro-4-hydroxy-2-oxo-2H-cycloocta[b]pyran-3-yl)methyl]phenyl]-4-morpholinepropanesulfonamide hydrogen iodide salt]	14.3 nM	–	–	–	–	–	–	29.06%	56.47%	93.46%	90.63%	90.94%	85.31%

Source: patent US5686486A, “4-hydroxy-benzopyran-2-ones and 4-hydroxy-cycloalkyl[b]pyran-2-ones useful to treat retroviral infections” (priority 1995, dated 1997)
